Results from patent publication US20090247520A1, “INHIBITORS OF ANTIGEN RECEPTOR-INDUCED NF-kappa B ACTIVATION” (The Burnham Institute for Medical Research, priority 2008, published 2009).
“Also recorded” adds a separate entry of the source.

What was measured:
[1] = tested on: CD4-TLR4 induced NF-κB reporter gene activity; assay: NF-κB reporter in HEK293-NF-κB-luc cells transfected with CD4-TLR4; type: cell-based; conditions: CID-2858522 4 μM, IKK inhibitor 10 μM, PKC inhibitor 1 μM
Experimental: (§1) FIGS. 3 (A-F) HEK293-NF-κB-luc cells were pretreated with CID-2858522 (4 μM), IKK inhibitor, BMS-335541 (10 μM), or PKC inhibitor, Bisindolylmaleimide I (1 μM) for 2 hrs and then transfected with plasmids encoding CD4/TLR4 (A), CD40 (B), NOD1 (C), NOD2 (D), cIAP2-MALT1 (E), or XIAP and TAB (F), or pcDNA as control (compounds were not removed). After 48 hrs, luciferase activity was measured expressing data as fold increase relative to unstimulated cells (mean±SD; n=3). (G-H) HEK293-NF-κB-luc cells were pretreated with CID-2858522 (4 μM), or IKK inhibitor, BMS-335541 (10 μM) for 2 hrs and then cultured with 2 μM doxorubicin (G) or 16 μM retinoic acid (H). After 48 hrs, luciferase activity was measured as above.
(§2) Counter Screening and Secondary Assays. To counter-screen for inhibitors of the TNF pathway, HEK293-NFκB-Luc cells were seeded at 10^5 cells per well in 90 μL medium in white 96-well plates (Greiner Bio-One) and cultured overnight, before adding compounds (5 μL in medium) to cells. […] Luciferase activity was measured using Britelite kit (Perkin Elmer). […] Cells were cultured in medium containing CID-2858522 or other compounds and luciferase activity was measured 48 h later. […] Reactions were then initiated by addition of 50 μL 160 nM ATP (Sigma) in PBS and luciferase activity was measured 2 h later using a luminometer (LJL Biosystems, Sunnyvale, Calif.).

[2] = tested on: NOD2 (NLRC2) induced NF-κB-luciferase reporter gene activity; assay: NF-κB reporter in HEK293-NF-κB-luc cells over-expressing NOD2; type: cell-based; conditions: CID-2858522 4 μM, IKK inhibitor 10 μM
Experimental: as §1, §2

[3] = tested on: XIAP plus TAB induced NF-κB activation; assay: NF-κB reporter in 293-NF-κB-luciferase cells transfected with XIAP plus TAB; type: cell-based; conditions: CID-2858522 4 μM, IKK inhibitor 10 μM
Experimental: as §1
Counter Screening and Secondary Assays. To counter-screen for inhibitors of the TNF pathway, HEK293-NFκB-Luc cells were seeded at 10^5 cells per well in 90 μL medium in white 96-well plates (Greiner Bio-One) and cultured overnight, before adding compounds (5 μL in medium) to cells. After 2 h incubation, 5 μL TNF (200 ng/mL) (R&D Systems) was added (final concentration 10 ng/mL) and cells were incubated for 16 h. Luciferase activity was measured using Britelite kit (Perkin Elmer). To counter-screen for inhibitors of NF-κB induced by TLR4, CD40, NOD1, NOD2, cIAP2/MALT, or XIAP/TAB, the 293-NF-κB-luc cells cultured in 96 well plates as above were pretreated with compounds for 2 h and then transfected using Lipofectamine 2000 with various plasmids including pcDNA3 (“empty vector” control) or plasmids encoding CD4-TLR4, CD40, NOD1, NOD2, cIAP2/MALT, XIAP/TAB, using 0.2 μL of transfection reagent containing 100 ng DNA per well. Cells were cultured in medium containing CID-2858522 or other compounds and luciferase activity was measured 48 h later. […] Reactions were then initiated by addition of 50 μL 160 nM ATP (Sigma) in PBS and luciferase activity was measured 2 h later using a luminometer (LJL Biosystems, Sunnyvale, Calif.).

[4] = tested on: retinoic acid-induced NF-κB activity; assay: NF-κB reporter in HEK293-NF-κB-luc cells treated with all-trans-retinoic acid; type: cell-based; conditions: 16 μM retinoic acid; CID-2858522 4 μM, IKK inhibitor 10 μM
Experimental: as §1, §2

PKC-theta = biological target: T1, PKC-theta (Homo sapiens, UniProt Q04759); assay: In vitro kinase assay PKC-theta (HTScan kit); type: biochemical; conditions: CID-2858522 up to 8 μM; STS 0.5 μM; PKC inhibitor 1 μM
T1 construct: purchased Cell Signaling, Danvers, Mass
Experimental: CID-2858522 (8 μM) were tested in in vitro IKK beta (A), PKC beta […] or PKC theta (C) kinase assays using kits. STS (0.5 μM), IKK inhibitor (10 μM) and PKC inhibitor (1 μM) were used as positive controls.
In Vitro Kinase Assays. PKC-beta, PKC-theta and IKK-beta in vitro kinase assays were performed using the HTScan Kinase Assay Kit (Cell Signaling, Danvers, Mass.) according to manufacturer's protocols. A panel of >300 kinases was screened by Ambit, Inc.

[5] = tested on: CARMA/MALT1/Bcl-10 complex; assay: Co-immunoprecipitation of CARMA1/CARMA3 with Bcl-10, MALT, TRAF6, IKKγ, Caspase-8 in transfected HEK293 cells; type: cell-based; conditions: for inhibition of PMA-induced association of CARMA1 or CARMA3 with Bcl-10, MALT, TRAF6, IKKγ, Caspase-8: CID-2858522 4 μM, Bisindolylmaleimide I 1 μM
Experimental: FIG. 7. CID-285852 inhibits IKKβ phosphorylation induced by PKC activators. (A) HEK293 cells were cultured in 0.5% FBS medium for 24 h and then treated with CID-2858522 (4 μM) or PKC inhibitor, Bisindolylmaleimide I (1 μM) for 2 hrs followed by PMA/Ionomycin (10 ng/mL; 5 ng/mL) for 2 h. Cell lysates were subjected to immunoprecipitation using anti-CARMA1 antibody and analyzed by immunoblotting with anti-phospho-CARMA1 antibody or anti-CARMA1 antibody. (B-E) HEK293 cells were transfected with plasmids encoding myc-CARMA1 in combination with plasmids encoding various other proteins including Caspase-8 (cys287ala) (B), HA-IKK-γ (C), HA-TAK1 (D), and TRAF6 (E). After 36 h. cells were cultured in 0.5% FBS medium for 12 h and then treated with CID-2858522 (4 μM) or Bisindolylmaleimide I (1 μM) for 2 hrs, followed by PMA/Ionomycin treatment (10 ng/mL; 5 ng/mL) for 2 hrs. Cell lysates were immunoprecipated using anti-myc antibody and analyzed by immunoblotting using anti-Caspase8 (B), anti-HA (C,D), or anti-TRAF6 (E) antibodies. (F) HEK293 cells were treated with CID-2858522 (4 μM) or PKC inhibitor (1 μM) followed by PMA/Ionomycin (10 ng/mL; 5 ng/mL) treatment for 2 hrs. Cell lysates were normalized for protein content and analyzed by immunoblotting using anti-FLIP and anti-alpha-tubulin antibodies. […] Cell lysates were immunoprecipitated using anti-IKK-β and analyzed by immunoblotting using anti-phospho-IKK-β antibody or anti-IKK-β antibody (as loading control). Approximate molecular weights of all proteins are indicated in kiloDaltons.
Mapping the site of action of CID-2858522 in the antigen receptor-activated NF-κB pathway. […] To characterize the effects of CID-2858522 on these possible targets of the antigen receptor pathway for NF-κB activation, we first evaluated PMA-induced phosphorylation of Carmal, by phospho-specific antibody immunoblotting, finding no effect of CID-2858522 on this molecular event that initiates formation of the CBM complex (FIG. 7A). […]

T1 sequence (Q04759 whole entry): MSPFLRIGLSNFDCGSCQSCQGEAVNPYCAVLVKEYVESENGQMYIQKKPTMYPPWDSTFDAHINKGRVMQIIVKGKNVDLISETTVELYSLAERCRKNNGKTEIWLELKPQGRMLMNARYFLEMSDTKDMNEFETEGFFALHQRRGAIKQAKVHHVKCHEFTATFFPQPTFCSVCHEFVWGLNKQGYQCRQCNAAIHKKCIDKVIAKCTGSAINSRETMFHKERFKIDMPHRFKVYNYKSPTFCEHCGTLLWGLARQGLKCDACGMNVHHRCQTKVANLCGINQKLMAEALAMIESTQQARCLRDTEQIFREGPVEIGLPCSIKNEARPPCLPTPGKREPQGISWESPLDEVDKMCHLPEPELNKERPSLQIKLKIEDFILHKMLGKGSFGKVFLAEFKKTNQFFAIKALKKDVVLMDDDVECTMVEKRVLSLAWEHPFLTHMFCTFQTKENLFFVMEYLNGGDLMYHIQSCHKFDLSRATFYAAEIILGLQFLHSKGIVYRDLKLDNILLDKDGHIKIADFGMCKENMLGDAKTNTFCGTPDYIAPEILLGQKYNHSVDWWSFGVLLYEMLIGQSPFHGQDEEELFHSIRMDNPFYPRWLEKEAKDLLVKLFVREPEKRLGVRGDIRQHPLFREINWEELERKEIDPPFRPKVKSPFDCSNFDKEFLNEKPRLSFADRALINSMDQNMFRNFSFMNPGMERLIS

Compound: Cc1ccc2nc(NCCN)c3ncc(C)n3c2c1 [BMS-345541, reference compound]
- suppression of TLR4 (CD4-TLR4) induced NF-κB reporter [1]: suppressed
- inhibition of NOD2-induced NF-κB reporter [2]: inhibited
- suppression of XIAP plus TAB-driven NF-κB activation [3]: effectively suppressed
- suppression of retinoic acid-induced NF-κB activity [4]: significantly suppressed

Compound: Cc1cc2nc(NCCCO)n(CC(=O)c3cc(C(C)(C)C)c(O)c(C(C)(C)C)c3)c2cc1C [Compound 1, 2-(2-(3-Hydroxypropylamino)-5,6-dimethyl-1H-benzo[d]imidazol-1-yl)-1-(3,5-di-tert-butyl-4-hydroxyphenyl)ethanone]
- suppression of TLR4 (CD4-TLR4) induced NF-κB reporter [1]: did not inhibit; also recorded: not by CID-2858522
- inhibition of NOD2-induced NF-κB reporter [2]: did not inhibit
- suppression of XIAP plus TAB-driven NF-κB activation [3]: did not inhibit
- suppression of XIAP plus TAB-driven NF-κB activation ([3]; listed as CID-288522): did not
- suppression of retinoic acid-induced NF-κB activity [4]: did not inhibit
- inhibition of PKC-theta kinase activity (PKC-theta): failed to suppress
- inhibition of PMA-induced association of CARMA1 or CARMA3 with Bcl-10, MALT, TRAF6, IKKγ, Caspase-8 [5]: not by CID-2858522
- disruption of CARMA/MALT1/Bcl-10 (CMB) complex formation ([5]; PMA/Ionomycin, cells or lysate): did not disrupt

Compound: CN(C)CCCn1cc(C2=C(c3c[nH]c4ccccc34)C(=O)NC2=O)c2ccccc21 [Bisindolylmaleimide I, reference compound]
- inhibition of PKC-theta kinase activity (PKC-theta): potent inhibition
- inhibition of PMA-induced association of CARMA1 or CARMA3 with Bcl-10, MALT, TRAF6, IKKγ, Caspase-8 [5]: inhibited
